From ChEMBL document CHEMBL1201862, “PubChem BioAssay data set” (2004)
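A five-concentration, 48-hour dose response in 96-well plates underlies each endpoint, interpolated linearly between surrounding concentrations. GI50 is the concentration that inhibits growth by half.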 Calls of active or inactive are those of the source. Cut-off read from the data, not from the text of the source: active = GI50 up to about 1.1 µM and inactive = higher.

How the values were obtained:
Assay in all cases: inhibition of tumour cell growth, NCI panel, 48 h
A549 = tested on: A549
SNB-19 = tested on: SNB-19
HCC 2998 = tested on: HCC 2998
A498 = tested on: A498
MOLT-4 = tested on: MOLT-4
DU-145 = tested on: DU-145
OVCAR-4 = tested on: OVCAR-4
Hs-578T = tested on: Hs-578T
NCI/ADR-RES = tested on: NCI/ADR-RES
NCI-H522 = tested on: NCI-H522
ACHN = tested on: ACHN
RXF 393 = tested on: RXF 393
PC-3 = tested on: PC-3
OVCAR-8 = tested on: OVCAR-8
SF-268 = tested on: SF-268
UACC-257 = tested on: UACC-257
OVCAR-5 = tested on: OVCAR-5
BT-549 = tested on: BT-549
SF-295 = tested on: SF-295
TK-10 = tested on: TK-10

Measured: GI50

N=c1oc2ccc([N+](=O)[O-])cc2cc1C(=O)Nc1ccccn1
inactive: A549 > 100 µM | SNB-19 33.9 µM | HCC 2998 91.4 µM | A498 > 100 µM | MOLT-4 > 100 µM | DU-145 60.4 µM | OVCAR-4 90.8 µM | Hs-578T 29.1 µM | NCI/ADR-RES 97.3 µM | NCI-H522 24.5 µM | ACHN 35.5 µM | RXF 393 31.2 µM | PC-3 12.9 µM | OVCAR-8 92.3 µM | SF-268 34.8 µM | UACC-257 > 100 µM | OVCAR-5 > 100 µM | BT-549 48.4 µM

COc1cccc(N2C(=O)C3c4[nH]c5ccccc5c4C4c5ccccc5CCC4C3C2=O)c1 (stereo not drawn)
inactive: A549 6.12 µM | SNB-19 3.31 µM | HCC 2998 > 10 µM | A498 2.77 µM | MOLT-4 > 10 µM | DU-145 > 10 µM | OVCAR-4 2.75 µM | Hs-578T 3 µM | SF-295 > 10 µM | NCI/ADR-RES 4.76 µM | NCI-H522 > 10 µM | ACHN > 10 µM | RXF 393 > 6.62 µM | PC-3 > 6.7 µM | OVCAR-8 2.34 µM | SF-268 4.16 µM | TK-10 > 10 µM | OVCAR-5 > 10 µM | BT-549 4.91 µM

O=[N+]([O-])C1(C2([N+](=O)[O-])CCCC2)CCCC1
inactive: A549 > 100 µM | SNB-19 > 100 µM | HCC 2998 > 100 µM | A498 > 100 µM | MOLT-4 > 100 µM | DU-145 > 100 µM | OVCAR-4 > 100 µM | Hs-578T > 100 µM | NCI/ADR-RES > 100 µM | NCI-H522 50.7 µM | RXF 393 > 100 µM | PC-3 > 100 µM | OVCAR-8 > 100 µM | SF-268 > 100 µM | TK-10 > 100 µM | UACC-257 > 100 µM | OVCAR-5 > 100 µM | BT-549 > 100 µM

O=C(/C=C/C=C/c1ccccc1)c1ccccc1
inactive: A549 18.1 µM | SNB-19 17.9 µM | HCC 2998 17.8 µM | A498 15.1 µM | MOLT-4 14.6 µM | DU-145 17.3 µM | OVCAR-4 17.7 µM | Hs-578T 20 µM | NCI/ADR-RES 13.8 µM | NCI-H522 4.66 µM | RXF 393 17.6 µM | PC-3 19.1 µM | OVCAR-8 13.4 µM | SF-268 19.3 µM | TK-10 19.9 µM | UACC-257 16.9 µM | OVCAR-5 14.7 µM | BT-549 18.8 µM
